Test results taken from patent US20070021360A1, “Compositions, formulations and kit with anti-sense oligonucleotide and anti-inflammatory steroid and/or obiquinone for treatment of respiratory and lung disesase” (priority 2001, published 2007).

Tests used:
HT-29 SF cells [1] = test: DHEA effect on cell growth (Coulter counter)
Method: Cell cultures, HT-29 SF cells, which represent a subline of HY-29 cells (ATCC, Rockville, Md.) and are adapted for growth in completely defined serum-free PC-1 medium (Ventrex, Portland, Me.), were obtained. Stock cultures were maintained in this medium at 37° in a humidified atmosphere containing 5% CO2.

HT-29 SF cells [2] = test: DHEA effect on cell cycle distribution (flow cytometry); assay type: cell-based, human; details: 25, 50, or 200 μM DHEA; 24, 48, 72 hours
Method: Cells were plated at 10^5/60-rm dish in duplicate. […] Cultures were trypsinized following […] and fixed and stained using a modification of a procedure of Bauer et al., Cancer Res., 46, 3173-3178 (1986). Briefly, cells were collected by centrifugation and resuspended in cold phosphate-buffered saline. Cells were fixed in 70% ethanol, washed, and resuspended in phosphate-buffered saline.
After 24, 48, and 72 hours, cells were harvested, fixed in ethanol, and stained with propidium iodide, and the DNA content/cell was determined by flow cytometric analysis. The percentage of cells in G1, S, and G2M phases was calculated using the Cellfit cell cycle analysis program. S phase is marked by a quadrangle for clarity. Representative histograms from duplicate determinations are shown. The experiment was repeated three times.
A transient increase in G2M phase cells was apparent after 48 hours.

G6PDH = test: Enzymatic assay of purified G6PDH; details: in vitro; compared to control
Method: All experiments were repeated 4 times.
A second group was added different concentrations of a CoQ of long side chain (in triplicate), and a third group received a CoQ of short side chain (in triplicate), both at various doses in the μM range.
The reaction was started by addition of the enzyme, and the increase in absorbance at 340 nm was measured for 5 minutes. Each data point was conducted in triplicate, and the full experiment was repeated 4 times.

C[C@]12CC[C@H](O)CC1=CC[C@@H]1[C@@H]2CC[C@]2(C)C(=O)CC[C@@H]12 [DHEA, 3β-hydroxyandrost-5-en-17-one]
inhibition of growth (HT-29 SF cells [1]; 0-200 μM DHEA, 0-72 hours): time- and dose-dependent inhibition of growth | exposure time after which cell number was reduced compared to controls (HT-29 SF cells [1]; 12.5 μM DHEA): 72 h | exposure time after which cell number was reduced compared to controls (HT-29 SF cells [1]; 200 μM DHEA): 24 h | exposure time after which cell number was reduced compared to controls (HT-29 SF cells [1]; 25 or 50 μM DHEA): 48 h | effect on cell cycle distribution (HT-29 SF cells [2]): G1 block | inhibition of activity of purified G6PDH (G6PDH): 72%
